From patent US11767322B2 (BRISTOL-MYERS SQUIBB COMPANY, priority 2020, dated 2023)
Like-named read-outs stand apart in the source and are kept apart here.

Columns and labels:
[1] = molecular target: T1, His-GST-TVMV-hRIPK1(1-324) (Homo sapiens, UniProt Q13546); test: biochemical; type: binding; conditions: HTRF probe displacement, 1 h at rt; read-out: RIPK1 IC50
T1 construct: The coding region of human RIPK1(1-324) flanked by NdeI site at 5′ end; made in house; host or cells: Spodoptera frugiperda Sf9 insect cells (baculovirus, Bac-to-Bac)
T1 sequence (Q13546 1-324): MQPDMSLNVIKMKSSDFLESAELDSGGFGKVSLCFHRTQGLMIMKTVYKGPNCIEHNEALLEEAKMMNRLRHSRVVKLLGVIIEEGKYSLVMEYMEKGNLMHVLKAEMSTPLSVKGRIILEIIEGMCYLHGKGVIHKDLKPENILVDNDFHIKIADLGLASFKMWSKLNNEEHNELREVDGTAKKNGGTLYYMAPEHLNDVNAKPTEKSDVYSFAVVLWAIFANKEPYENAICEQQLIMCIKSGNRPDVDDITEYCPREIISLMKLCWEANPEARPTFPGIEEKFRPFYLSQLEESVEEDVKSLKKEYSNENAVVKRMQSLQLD

[2] = system: MLKL phosphorylation in HT29-L23 human colorectal adenocarcinoma cells; test: MLKL phosphorylation high-content assay; type: cell-based; conditions: 6 h, necroptosis induced with TNFα, SMAC mimetic and Z-VAD, 6 h, maximal inhibition defined by Nec1s
[3] = molecular target: GST-tagged PIK3Cδ in complex with PIK3R1 (Homo sapiens, UniProt O00329); test: PI3Kδ HTRF binding assay; conditions: HTRF probe displacement, 1 h at rt; read-out: PIK3CD IC50
[4] = Homo sapiens, read-out: pMLKL IC50, HT29-L23 cells
[5] = read-out: pMLKL IC50, HT29-L23 cells

Sequence of GST-tagged PIK3Cδ in complex with PIK3R1 (O00329 whole entry): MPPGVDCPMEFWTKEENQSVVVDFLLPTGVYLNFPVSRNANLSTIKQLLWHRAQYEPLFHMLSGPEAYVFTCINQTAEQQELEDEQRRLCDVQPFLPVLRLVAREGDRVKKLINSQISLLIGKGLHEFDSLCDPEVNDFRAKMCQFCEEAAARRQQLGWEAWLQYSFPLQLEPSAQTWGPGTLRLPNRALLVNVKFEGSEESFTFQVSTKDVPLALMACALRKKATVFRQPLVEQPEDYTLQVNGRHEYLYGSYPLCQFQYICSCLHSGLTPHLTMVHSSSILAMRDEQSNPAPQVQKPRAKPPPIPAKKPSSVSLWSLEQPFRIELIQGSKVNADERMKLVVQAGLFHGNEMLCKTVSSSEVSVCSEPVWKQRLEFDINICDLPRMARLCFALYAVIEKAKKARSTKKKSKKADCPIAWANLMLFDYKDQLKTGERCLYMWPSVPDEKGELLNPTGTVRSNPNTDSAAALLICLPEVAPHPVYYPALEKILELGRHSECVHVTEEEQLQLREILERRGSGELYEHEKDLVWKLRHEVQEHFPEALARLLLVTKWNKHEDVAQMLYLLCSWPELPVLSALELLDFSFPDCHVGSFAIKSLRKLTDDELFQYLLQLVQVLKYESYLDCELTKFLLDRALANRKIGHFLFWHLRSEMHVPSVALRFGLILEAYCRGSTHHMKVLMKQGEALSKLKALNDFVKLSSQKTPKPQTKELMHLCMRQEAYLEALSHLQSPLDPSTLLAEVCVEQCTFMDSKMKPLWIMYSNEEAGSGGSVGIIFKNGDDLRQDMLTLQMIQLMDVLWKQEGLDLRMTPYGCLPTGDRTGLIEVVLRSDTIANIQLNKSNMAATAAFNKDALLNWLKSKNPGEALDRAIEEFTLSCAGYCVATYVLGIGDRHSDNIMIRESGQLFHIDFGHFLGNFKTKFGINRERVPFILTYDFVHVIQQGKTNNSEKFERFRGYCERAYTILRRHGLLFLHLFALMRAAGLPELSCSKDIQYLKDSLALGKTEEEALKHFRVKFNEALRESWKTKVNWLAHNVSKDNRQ
Sequence of GST-tagged PIK3Cδ in complex with PIK3R1 (P27986 whole entry partner): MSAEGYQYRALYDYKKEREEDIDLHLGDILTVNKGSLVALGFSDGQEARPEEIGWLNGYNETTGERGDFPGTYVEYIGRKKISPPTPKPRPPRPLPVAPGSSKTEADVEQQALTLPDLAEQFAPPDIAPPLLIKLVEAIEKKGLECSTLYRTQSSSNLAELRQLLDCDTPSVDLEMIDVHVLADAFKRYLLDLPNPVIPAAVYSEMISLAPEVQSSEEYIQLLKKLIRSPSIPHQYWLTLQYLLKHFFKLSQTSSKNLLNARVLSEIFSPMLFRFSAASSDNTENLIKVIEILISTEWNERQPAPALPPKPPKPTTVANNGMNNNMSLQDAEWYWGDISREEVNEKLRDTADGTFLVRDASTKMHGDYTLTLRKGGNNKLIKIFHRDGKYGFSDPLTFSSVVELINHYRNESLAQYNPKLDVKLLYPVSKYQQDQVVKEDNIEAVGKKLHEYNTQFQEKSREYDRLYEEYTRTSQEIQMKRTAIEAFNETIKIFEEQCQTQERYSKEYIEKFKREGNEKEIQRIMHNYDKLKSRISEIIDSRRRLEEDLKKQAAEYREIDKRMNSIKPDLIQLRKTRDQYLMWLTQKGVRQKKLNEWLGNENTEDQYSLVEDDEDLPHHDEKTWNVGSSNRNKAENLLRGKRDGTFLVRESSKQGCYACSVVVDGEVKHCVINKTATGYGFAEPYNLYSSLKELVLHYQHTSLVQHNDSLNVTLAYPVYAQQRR

| SMILES | IC50 [1] [nM] | IC50 [2, 4] [nM] | IC50 [3] [µM] | IC50 [2, 5] [nM] |
| --- | --- | --- | --- | --- |
| Cc1ccc(-c2ccn3nc(N)nc3c2)c(F)c1C(=O)NCCC(O)c1c(F)cccc1F (single isomer, unassigned) [Example 74, 3-(2-amino-[1,2,4]triazolo[1,5-a]pyridin-7-yl)-Nr-(3-(2,6-difluorophenyl)-3-hydroxypropyl)-2-fluoro-6-methylbenzamide] | 13 | 8.2 | > 15 |  |
| Nc1nc2cc(-c3ccc(Cl)c(C(=O)NCCC(O)c4ccc(Cl)cn4)c3F)ccn2n1 (single isomer, unassigned) [Example 82, 3-(2-amino-[1,2,4]triazolo[1,5-a]pyridin-7-yl)-6-chloro-N-(3-(5-chloropyridin-2-yl)-3-hydroxypropyl)-2-fluorobenzamide] | 27 | 26 | 12 |  |
| Nc1nc2cc(-c3ccc(Cl)c(C(=O)NCCC(O)c4ccc(Cl)cn4)c3F)ccn2n1 (single isomer, unassigned) [Example 83, 3-(2-amino-[1,2,4]triazolo[1,5-a]pyridin-7-yl)-6-chloro-N-(3-(5-chloropyridin-2-yl)-3-hydroxypropyl)-2-fluorobenzamide] | 29 |  | 11 | 17 |
| Cc1cc(F)c(-c2ccn3nc(N)nc3c2)cc1C(=O)NCC(F)(F)C(O)c1ccc(F)cc1 (single isomer, unassigned) [Example 97, 5-(2-amino-[1,2,4]triazolo[1,5-a]pyridin-7-yl)-N-(2,2-difluoro-3-(4-fluorophenyl)-3-hydroxypropyl)-4-fluoro-2-methylbenzamide] | 1.3 |  | > 15 | 6.4 |
| Cc1cc(F)c(-c2ccn3nc(N)nc3c2)cc1C(=O)NCC(F)(F)C(O)c1ccc(F)cc1 (single isomer, unassigned) [Example 98, 5-(2-amino-[1,2,4]triazolo[1,5-a]pyridin-7-yl)-N-(2,2-difluoro-3-(4-fluorophenyl)-3-hydroxypropyl)-4-fluoro-2-methylbenzamide] | 2.8 |  | > 15 | 1.2 |
| Cc1ccc(-c2ccn3nc(N)nc3c2)c(F)c1C(=O)NCC(F)(F)C(O)c1ccc(F)c(F)c1 (single isomer, unassigned) [Example 198, 3-(2-amino-[1,2,4]triazolo[1,5-a]pyridin-7-yl)-N-(3-(3,4-difluorophenyl)-2,2-difluoro-3-hydroxypropyl)-2-fluoro-6-methylbenzamide] | 6.4 |  | > 15 | 1.3 |
| Cc1ccc(-c2ccn3nc(N)nc3c2)c(F)c1C(=O)NCC(F)(F)C(O)c1ccc(F)c(F)c1 (single isomer, unassigned) [Example 199, 3-(2-amino-[1,2,4]triazolo[1,5-a]pyridin-7-yl)-N-(3-(3,4-difluorophenyl)-2,2-difluoro-3-hydroxypropyl)-2-fluoro-6-methylbenzamide] | 1.4 |  | > 15 | 0.6 |
| Cc1ccc(-c2ccn3nc(N)nc3c2)c(F)c1C(=O)NCC(F)(F)C(C)(O)c1ccc(Cl)cc1 (single isomer, unassigned) [Example 221, 3-(2-amino-[1,2,4]triazolo[1,5-a]pyridin-7-yl)-N-(3-(4-chlorophenyl)-2,2-difluoro-3-hydroxybutyl)-2-fluoro-6-methylbenzamide] | 3.2 | 0.9 | > 15 |  |
| Cc1ccc(-c2ccn3nc(N)nc3c2)c(F)c1C(=O)NCC(F)(F)C(C)(O)c1ccc(Cl)cc1 (single isomer, unassigned) [Example 222, 3-(2-amino-[1,2,4]triazolo[1,5-a]pyridin-7-yl)-N-(3-(4-chlorophenyl)-2,2-difluoro-3-hydroxybutyl)-2-fluoro-6-methylbenzamide] | 3.2 |  | > 15 | 1 |
| CC(O)(c1ccc(Cl)cc1)C(F)(F)CNC(=O)c1c(Cl)ccc(-c2ccn3nc(N)nc3c2)c1F (single isomer, unassigned) [Example 223, 3-(2-amino-[1,2,4]triazolo[1,5-a]pyridin-7-yl)-6-chloro-N-(3-(4-chlorophenyl)-2,2-difluoro-3-hydroxybutyl)-2-fluorobenzamide] | 5.8 |  | > 15 | 71 |
| CC(O)(c1ccc(Cl)cc1)C(F)(F)CNC(=O)c1c(Cl)ccc(-c2ccn3nc(N)nc3c2)c1F (single isomer, unassigned) [Example 224, 3-(2-amino-[1,2,4]triazolo[1,5-a]pyridin-7-yl)-6-chloro-N-(3-(4-chlorophenyl)-2,2-difluoro-3-hydroxybutyl)-2-fluorobenzamide] | 5.2 |  | > 15 | 4.1 |
| Cc1c(F)cc(-c2ccn3nc(N)nc3c2)cc1C(=O)NCC(F)(F)C(O)c1ccc(F)cc1 (single isomer, unassigned) [Example 231, 5-(2-amino-[1,2,4]triazolo[1,5-a]pyridin-7-yl)-N-(2,2-difluoro-3-(4-fluorophenyl)-3-hydroxypropyl)-3-fluoro-2-methylbenzamide] | 2 |  | > 15 | 1.2 |
| Cc1c(F)cc(-c2ccn3nc(N)nc3c2)cc1C(=O)NCC(F)(F)C(O)c1ccc(F)cc1 (single isomer, unassigned) [Example 232, 5-(2-amino-[1,2,4]triazolo[1,5-a]pyridin-7-yl)-N-(2,2-difluoro-3-(4-fluorophenyl)-3-hydroxypropyl)-3-fluoro-2-methylbenzamide] | 4.5 |  | > 15 | 3 |
| [2H]C([2H])([2H])C(O)(c1ccc(F)cc1)C(F)CNC(=O)c1c(Cl)ccc(-c2ccn3nc(N)nc3c2)c1F (single isomer, unassigned) [Example 238, 3-(2-amino-[1,2,4]triazolo[1,5-a]pyridin-7-yl)-6-chloro-2-fluoro-N-(2-fluoro-3-(4-fluorophenyl)-3-hydroxybutyl-4,4,4-d3)benzamide] | 16 |  | > 15 | 1.9 |
| [2H]C([2H])([2H])C(O)(c1ccc(F)cc1)C(F)CNC(=O)c1c(Cl)ccc(-c2ccn3nc(N)nc3c2)c1F (single isomer, unassigned) [Example 239, 3-(2-amino-[1,2,4]triazolo[1,5-a]pyridin-7-yl)-6-chloro-2-fluoro-N-(2-fluoro-3-(4-fluorophenyl)-3-hydroxybutyl-4,4,4-d3)benzamide] | 55 |  | > 15 | 26 |
| [2H]C([2H])(CC([2H])(O)c1ccc(Cl)cc1)NC(=O)c1c(F)ccc(-c2ccn3nc(N)nc3c2)c1F (single isomer, unassigned) [Example 250, 3-(2-amino-[1,2,4]triazolo[1,5-a]pyridin-7-yl)-N-(3-(4-chlorophenyl)-3-hydroxypropyl-1,1,3-d3)-2,6-difluorobenzamide] | 13 | 21 | > 15 |  |
| Nc1nc2cc(-c3ccc(Cl)c(C(=O)NCC(F)(F)C(O)c4ccc(Cl)c(Cl)c4)c3F)ccn2n1 (single isomer, unassigned) [Example 264, 3-{2-amino-[1,2,4]triazolo[1,5-a]pyridin-7-yl}-6-chloro-N-[3-(3,4-dichlorophenyl)-2,2-difluoro-3-hydroxypropyl]-2-fluorobenzamide] | 6.2 |  | > 15 | 1 |
